What was measured:
Type in all cases: in vivo
Kochia (Kochia scoparia) [1] = assay: Test A preemergence; details: Bassia scoparia, pre-emergence, 240 h
Procedure, shortened: (§1)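 In a loam soil and sand blend, planted seeds got a preemergence directed soil spray, and young plants at the one- to two-leaf stage, 2–10 cm high, got a postemergence application; ~10 d greenhouse hold; injury rated visually, 0 = none, 100 = complete control.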

[2] = system: barnyardgrass (Echinochloa crus-galli); assay: Test A preemergence; details: Echinochloa crus-galli, pre-emergence, 240 h
Procedure, shortened: as §1

[3] = system: giant foxtail (Setaria faberii); assay: Test A preemergence; details: Setaria faberi, pre-emergence, 240 h
Procedure, shortened: as §1

[4] = system: pigweed (Amaranthus retroflexus); assay: Test A preemergence; details: Amaranthus retroflexus, pre-emergence, 240 h
[5] = system: ragweed (common ragweed, Ambrosia elatior); assay: Test A preemergence; details: Ambrosia artemisiifolia, pre-emergence, 240 h
Procedure, shortened: as §1

[6] = system: ryegrass, Italian (Italian ryegrass, Lolium multiflorum); assay: Test A preemergence; details: Lolium multiflorum, pre-emergence, 240 h
Procedure, shortened: as §1

[7] = system: Galium (catchweed bedstraw, Galium aparine); assay: Test A postemergence; details: Galium, post-emergence, 240 h, 125 g ai/ha, Postemergence; visual injury after approximately 10 d; 0 to 100 scale where 0 is no effect and 100 is complete control; read-out: Plant response rating, Galium
Procedure, shortened: as §1

Kochia (Kochia scoparia) [8] = assay: Test A postemergence; details: Bassia scoparia, post-emergence, 240 h, 125 g ai/ha, Postemergence; visual injury after approximately 10 d; 0 to 100 scale where 0 is no effect and 100 is complete control; read-out: Plant response rating, Kochia
Procedure, shortened: as §1

[9] = system: barnyardgrass (Echinochloa crus-galli); assay: Test A postemergence; details: Echinochloa crus-galli, post-emergence, 240 h, 125 g ai/ha, Postemergence; visual injury after approximately 10 d; 0 to 100 scale where 0 is no effect and 100 is complete control; read-out: Plant response rating, Barnyardgrass
Procedure, shortened: as §1

[10] = system: blackgrass (Alopecurus myosuroides); assay: Test A postemergence; details: Alopecurus myosuroides, post-emergence, 240 h, 125 g ai/ha, Postemergence; visual injury after approximately 10 d; 0 to 100 scale where 0 is no effect and 100 is complete control; read-out: Plant response rating, Blackgrass
Procedure, shortened: as §1

corn (Zea mays) = assay: Test A postemergence; details: Zea mays, post-emergence, 240 h, 125 g ai/ha, Postemergence; visual injury after approximately 10 d; 0 to 100 scale where 0 is no effect and 100 is complete control
Procedure, shortened: as §1

[11] = system: giant foxtail (Setaria faberii); assay: Test A postemergence; details: Setaria faberi, post-emergence, 240 h, 125 g ai/ha, Postemergence; visual injury after approximately 10 d; 0 to 100 scale where 0 is no effect and 100 is complete control; read-out: Plant response rating, Foxtail, Giant
Procedure, shortened: as §1

[12] = system: pigweed (Amaranthus retroflexus); assay: Test A postemergence; details: Amaranthus retroflexus, post-emergence, 240 h, 125 g ai/ha, Postemergence; visual injury after approximately 10 d; 0 to 100 scale where 0 is no effect and 100 is complete control; read-out: Plant response rating, Pigweed
Procedure, shortened: as §1

[13] = system: ragweed (common ragweed, Ambrosia elatior); assay: Test A postemergence; details: Ambrosia artemisiifolia, post-emergence, 240 h, 125 g ai/ha, Postemergence; visual injury after approximately 10 d; 0 to 100 scale where 0 is no effect and 100 is complete control; read-out: Plant response rating, Ragweed
Procedure, shortened: as §1

[14] = system: ryegrass, Italian (Italian ryegrass, Lolium multiflorum); assay: Test A postemergence; details: Lolium multiflorum, post-emergence, 240 h, 125 g ai/ha, Postemergence; visual injury after approximately 10 d; 0 to 100 scale where 0 is no effect and 100 is complete control; read-out: Plant response rating, Ryegrass, Italian
Procedure, shortened: as §1

[15] = system: wheat (Triticum aestivum); assay: Test A postemergence; details: Triticum aestivum, post-emergence, 240 h, 125 g ai/ha, Postemergence; visual injury after approximately 10 d; 0 to 100 scale where 0 is no effect and 100 is complete control; read-out: Plant response rating, Wheat
Procedure, shortened: as §1

[16] = system: barnyardgrass (Echinochloa crus-galli); assay: Test B flooded paddy test; details: Echinochloa crus-galli, Flood, 250 g ai/ha; scale of 0 to 100 where 0 is no effect and 100 is complete control; read-out: Barnyardgrass plant response rating
Procedure, shortened: (§2)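 Evaluation by eye, against controls, occurred 13–15 d post-treatment in a greenhouse, using a 0 (no effect) to 100 (complete control) scale. Application was into the paddy water, 3 cm deep over the soil, on 2-leaf plants.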

[17] = system: ducksalad (Heteranthera limosa); assay: Test B flooded paddy test; details: Heteranthera limosa, Flood, 250 g ai/ha; scale of 0 to 100 where 0 is no effect and 100 is complete control; read-out: Ducksalad plant response rating
Procedure, shortened: as §2

rice (Oryra sativa) = assay: Test B flooded paddy test; details: Oryza sativa, Flood, 250 g ai/ha; scale of 0 to 100 where 0 is no effect and 100 is complete control; read-out: Rice plant response rating
Procedure, shortened: as §2

[18] = system: sedge, umbrella (small-flower umbrella sedge, Cyperus difformis); assay: Test B flooded paddy test; details: Cyperus difformis, Flood, 250 g ai/ha; scale of 0 to 100 where 0 is no effect and 100 is complete control; read-out: Sedge, Umbrella plant response rating
Procedure, shortened: as §2

Work on `Cc1ccc(NC(=O)[C@H]2C(=O)N(C)C[C@@H]2c2cc(F)cc(F)c2)cc1` [Compound 967] yielded a pest or weed control at 125 g/ha (Kochia (Kochia scoparia) [1]; 125 g ai/ha, Preemergence, visual injury rating after approximately 10 d, read-out: Kochia plant response rating (0 to 100 scale, 0 is no effect, 100 is complete control)) of 0%, a pest or weed control at 500 g/ha (Kochia (Kochia scoparia) [1]; 500 g ai/ha, preemergence, visual injury rating about 10 d after treatment, 0 to 100 scale (0 no effect, 100 complete control), read-out: Kochia plant response rating) of 0% and a pest or weed control at 125 g/ha ([2]; 125 g ai/ha, Preemergence, visual injury rating after approximately 10 d, read-out: Barnyardgrass plant response rating (0 to 100 scale, 0 is no effect, 100 is complete control)) of 80%. It also gave a pest or weed control at 500 g/ha ([2]; 500 g ai/ha, preemergence, visual injury rating about 10 d after treatment, 0 to 100 scale (0 no effect, 100 complete control), read-out: Barnyardgrass plant response rating) of 90%, a pest or weed control at 125 g/ha ([3]; 125 g ai/ha, Preemergence, visual injury rating after approximately 10 d, read-out: Foxtail, Giant plant response rating (0 to 100 scale, 0 is no effect, 100 is complete control)) of 80% and a pest or weed control at 500 g/ha ([3]; 500 g ai/ha, preemergence, visual injury rating about 10 d after treatment, 0 to 100 scale (0 no effect, 100 complete control), read-out: Foxtail, Giant plant response rating) of 90%. For the same molecule, the pest or weed control at 125 g/ha ([4]; 125 g ai/ha, Preemergence, visual injury rating after approximately 10 d, read-out: Pigweed plant response rating (0 to 100 scale, 0 is no effect, 100 is complete control)) was 0%, the pest or weed control at 500 g/ha ([4]; 500 g ai/ha, preemergence, visual injury rating about 10 d after treatment, 0 to 100 scale (0 no effect, 100 complete control), read-out: Pigweed plant response rating) was 0% and the pest or weed control at 125 g/ha ([5]; 125 g ai/ha, Preemergence, visual injury rating after approximately 10 d, read-out: Ragweed plant response rating (0 to 100 scale, 0 is no effect, 100 is complete control)) was 0%. For the same molecule, the pest or weed control at 500 g/ha ([5]; 500 g ai/ha, preemergence, visual injury rating about 10 d after treatment, 0 to 100 scale (0 no effect, 100 complete control), read-out: Ragweed plant response rating) was 0%, the pest or weed control at 125 g/ha ([6]; 125 g ai/ha, Preemergence, visual injury rating after approximately 10 d, read-out: Ryegrass, Italian plant response rating (0 to 100 scale, 0 is no effect, 100 is complete control)) was 0% and the pest or weed control at 500 g/ha ([6]; 500 g ai/ha, preemergence, visual injury rating about 10 d after treatment, 0 to 100 scale (0 no effect, 100 complete control), read-out: Ryegrass, Italian plant response rating) was 0%. The pest or weed control at 125 g/ha [7] was 0%, the pest or weed control at 125 g/ha (Kochia (Kochia scoparia) [8]) was 0% and the pest or weed control at 125 g/ha [9] was 80%. The pest or weed control at 125 g/ha [10] was 0%, the Corn plant response rating (crop injury, 0 = no effect, 100 = complete kill) at 125 g/ha (corn (Zea mays)) was 0% and the pest or weed control at 125 g/ha [11] was 80%. For the same molecule, the pest or weed control at 125 g/ha [12] was 0%, the pest or weed control at 125 g/ha [13] was 0% and the pest or weed control at 125 g/ha [14] was 0%. It also gave a plant injury at 125 g/ha [15] of 0%, a pest or weed control at 250 g/ha [16] of 0% and a pest or weed control at 250 g/ha [17] of 35%. For the same molecule, the pest or weed control at 250 g/ha (rice (Oryra sativa)) was 0% and the pest or weed control at 250 g/ha [18] was 0%.

Source: US12077503B2, “Substituted cyclic amides and their use as herbicides” (FMC CORPORATION, priority 2015, dated 2024)
